Measurements from ChEMBL document CHEMBL1136642, “Substituted 4-methylquinolines as a new class of anti-tuberculosis agents” (Bioorg Med Chem Lett, 2003).
Values after ≈ are worked out from the molar mass of the structure shown.

Experiments:
[1] = test system: Mycobacterium tuberculosis; experiment: Minimum inhibitory concentration against Mycobacterium tuberculosis strain H37Rv, using Alamar assay; type: functional
[2] = test system: Mycobacterium tuberculosis; experiment: Minimum inhibitory concentration against Mycobacterium tuberculosis strain, CIP-R; type: functional
[3] = test system: Mycobacterium tuberculosis; experiment: Minimum inhibitory concentration against Mycobacterium tuberculosis strain, EMB-R; type: functional
[4] = test system: Mycobacterium tuberculosis; experiment: Minimum inhibitory concentration against Mycobacterium tuberculosis strain, Erdman; type: functional
[5] = test system: Mycobacterium tuberculosis; experiment: Minimum inhibitory concentration against Mycobacterium tuberculosis strain, INH-R; type: functional
[6] = test system: Mycobacterium tuberculosis; experiment: Minimum inhibitory concentration against Mycobacterium tuberculosis strain, KM-R; type: functional
[7] = test system: Mycobacterium tuberculosis; experiment: Minimum inhibitory concentration against Mycobacterium tuberculosis strain, RMP-R; type: functional
[8] = test system: Mycobacterium tuberculosis; experiment: Minimum inhibitory concentration required to inhibit 90% of the inoculum of tuberculosis H37Rv; type: functional
[9] = test system: Mycobacterium tuberculosis; experiment: In vitro anti-mycobacterial activity against Mycobacterium tuberculosis H37Rv; type: functional; design: concentration or dose not given beside the values
[10] = test system: Mycobacterium tuberculosis; experiment: Minimum bactericidal concentration (MBC) against H37Rv; type: functional
[11] = test system: Mycobacterium tuberculosis; experiment: Minimum bactericidal concentration (MBC) against INH-R; type: functional
[12] = test system: Mycobacterium tuberculosis; experiment: Minimum bactericidal concentration (MBC) against RMP-R; type: functional
Vero = experiment: In vitro cytotoxicity was determined against VERO cells; type: functional, cell-based; conditions: Chlorocebus sabaeus
[13] = Ratio of minimum bactericidal concentration (MBC) against H37Rv to that of minimum inhibitory concentration (MIC) to H37Rv in Alamar assay(Mycobacterium tuberculosis); type: functional
[14] = Ratio of minimum bactericidal concentration (MBC) against INH-R to that of minimum inhibitory concentration (MIC) to H37Rv in Alamar assay(Mycobacterium tuberculosis); type: functional
[15] = Ratio of minimum bactericidal concentration (MBC) against RMP-R to that of minimum inhibitory concentration (MIC) to H37Rv in Alamar assay(Mycobacterium tuberculosis); type: functional

Row | SMILES | MIC [8] [µg/mL] | Inhibition [9] [%] | other results
1 | Cc1cc(C2CCCC2)nc2c(C3CCCC3)cccc12 | > 6.25 | 100 | MIC [1]: 25 µg/mL (≈ 89.5 µM); MIC [2]: 12.5 µg/mL (≈ 44.7 µM); MIC [3]: 12.5 µg/mL (≈ 44.7 µM); MIC [4]: 50 µg/mL (≈ 179 µM); MIC [5]: 12.5 µg/mL (≈ 44.7 µM); MIC [6]: 25 µg/mL (≈ 89.5 µM); MIC [7]: 12.5 µg/mL (≈ 44.7 µM); MBC [10]: 50 µg/mL (≈ 179 µM); MBC [11]: 100 µg/mL (≈ 358 µM); MBC [12]: 200 µg/mL (≈ 716 µM); IC50 (Vero): > 50 µg/mL; Ratio [13]: 2 µg/mL; Ratio [14]: 4 µg/mL; Ratio [15]: 8 µg/mL
2 | CCCc1cc(C)c2cccc(CCC)c2n1 | > 6.25 | 36 | 
3 | CCCc1cc(C)c2ccccc2n1 | > 6.25 | 30 | 
4 | Cc1cc(C(C)C)nc2ccccc12 | > 6.25 | 57 | 
5 | Cc1cc(C(C)C)nc2c(C(C)C)cccc12 | > 6.25 | 71 | 
6 | CCCCCCc1cc(C)c2ccccc2n1 | > 6.25 | 20 | 
7 | Cc1cc(C2CCC2)nc2ccccc12 | > 6.25 | 67 | 
8 | Cc1cc(C23CC4CC(CC(C4)C2)C3)nc2ccccc12 | > 69.2 | 76 | 
9 | CCCCCCc1cc(C)c2cccc(CCCCCC)c2n1 | > 6.25 | 23 | 
10 | CCCCCc1cc(C)c2cccc(CCCCC)c2n1 | > 6.25 | 29 | 
11 | CCCCc1cc(C)c2cccc(CCCC)c2n1 | 6.25 (≈ 24.5 µM) | 33 | 
12 | Cc1cc(C2CCC2)nc2c(C3CCC3)cccc12 | 12.5 (≈ 49.7 µM) | 100 | 
13 | Cc1cc(C2CCCC2)nc2ccccc12 | > 6.25 | 74 | 
14 | CCCCCc1cc(C)c2ccccc2n1 | > 6.25 | 24 | 
15 | Cc1ccnc2ccccc12 | > 6.25 | 0 | 
16 | Cc1cc(C2CC2)nc2ccccc12 | > 6.25 | 29 | 
17 | Cc1cc(C2CCCCC2)nc2ccccc12 | > 6.25 | 16 | 
18 | Cc1cc(C2CCCCC2)nc2c(C3CCCCC3)cccc12 | > 6.25 | 53 | 
19 | CCCCc1cc(C)c2ccccc2n1 | > 6.25 | 28 | 
